Measured values: US6479265B1, “Catalytic antibodies which hydrolyze primary amides and methods for eliciting and use of such antibodies” (Igen International, Inc., priority 1993, dated 2002)

Tested on: 13D11
Test: Inhibition of hydrolysis of 10 by 13D11 (secondary screening)
Type: biochemical, mice
Conditions: buffer tried as an alternative to Tris
Experimental: Antibody 13D11 (14.5 μM) was re-screened for activity toward 10 (nominally 500 μM) in the absence and presence of 63 μM (RT-2 hapten)(D/L mixture).
Until this point, 13D11 antibody had been purified by Protein A and DEAE chromatography. To determine whether the activity toward 10 was due to a contaminating enzyme, 13D11 was further purified on a Mono Q column (Pharmacia) by FPLC.

O=S(=O)(O)CCNC1CCCCC1 [CHES]
inhibition of the hydrolysis of 10 by 13D11: found to inhibit
